# Results from ChEMBL document CHEMBL1152088, “Activated ketones as potent reversible inhibitors of interleukin-I converting enzyme” (Bioorg Med Chem Lett, 1994).
# Target: T1, Caspase-1 (Homo sapiens, UniProt P29466)
# T1 sequence (P29466 whole entry): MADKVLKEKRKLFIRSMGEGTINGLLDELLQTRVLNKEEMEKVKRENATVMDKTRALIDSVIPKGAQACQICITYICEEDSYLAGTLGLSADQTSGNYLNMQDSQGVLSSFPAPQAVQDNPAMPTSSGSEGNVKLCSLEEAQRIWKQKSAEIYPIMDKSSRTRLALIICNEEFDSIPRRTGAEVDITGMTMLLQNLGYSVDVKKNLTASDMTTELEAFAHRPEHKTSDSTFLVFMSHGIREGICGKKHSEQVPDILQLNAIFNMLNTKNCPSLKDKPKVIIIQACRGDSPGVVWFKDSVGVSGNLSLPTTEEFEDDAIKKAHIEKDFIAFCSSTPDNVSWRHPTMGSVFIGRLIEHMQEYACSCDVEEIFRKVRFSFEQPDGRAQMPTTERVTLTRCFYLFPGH
# Assay: Tested for inhibition of cysteine proteinase IL-1 beta converting enzyme (ICE)
row,Structure (SMILES),Ki
1,CC(C)[C@H](NC(=O)CCc1ccccc1)C(=O)N[C@@H](C)C(=O)NC(CC(=O)O)C(=O)CN(CCc1ccccc1)Cc1ccccc1 (stereo partly drawn),0.06 µM
2,CC(C)[C@H](NC(=O)CCc1ccccc1)C(=O)N[C@@H](C)C(=O)NC(CC(=O)O)C(=O)CS(=O)(=O)CCCc1ccccc1 (stereo partly drawn),0.113 µM
3,CC(C)[C@H](NC(=O)CCc1ccccc1)C(=O)N[C@@H](C)C(=O)NC(CC(=O)O)C(=O)COC(=O)NCc1ccccc1 (stereo partly drawn),0.12 µM
4,CC(C)[C@H](NC(=O)CCc1ccccc1)C(=O)N[C@@H](C)C(=O)NC(CC(=O)O)C(=O)C[S+]([O-])CCCc1ccccc1 (stereo partly drawn),0.027 µM
5,CC(C)[C@H](NC(=O)CCc1ccccc1)C(=O)N[C@@H](C)C(=O)NC(CC(=O)O)C(=O)CCCCc1ccccc1 (stereo partly drawn),0.1 µM

# The next molecules have a lower Ki than those just listed; values first:
row,Ki,Structure (SMILES)
1,0.011 µM,CC(C)[C@H](NC(=O)CCc1ccccc1)C(=O)N[C@@H](C)C(=O)NC(CC(=O)O)C(=O)CSCCCc1ccccc1 (stereo partly drawn)
2,0.0047 µM,CC(C)[C@H](NC(=O)CCc1ccccc1)C(=O)N[C@@H](C)C(=O)NC(CC(=O)O)C(=O)CNCCc1ccccc1 (stereo partly drawn)
3,0.0027 µM,CC(C)[C@H](NC(=O)CCc1ccccc1)C(=O)N[C@@H](C)C(=O)NC(CC(=O)O)C(=O)COC(=O)CCc1ccccc1 (stereo partly drawn)
